Consider 29 compounds from US11078170B2 (Assembly Biosciences, Inc., priority 2017, dated 2021).

Molecules are shown by their SMILES.

The subject of the assay is HBV viral production from HepAD38 cells. Briefly: Activity of test compounds on viral production from HepAD38 cells (viral load by qPCR of HBV core sequence in supernatant). In kind it is cell-based. As to conditions: Hepatitis B virus, 120 h, 5 days incubation, HBV DNA in supernatant by qPCR, top concentration 10 μM, read-out: Viral Load EC50 Activity range. In short, it runs like this:
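EC50 and CC50 come from four-parameter fits of supernatant viral load and CellTiter-Glo viability, respectively. Viral load was measured by core-region TaqMan qPCR against HBV DNA standards and compared with DMSO controls. Tet-free HepAD38 cells (50,000/well, 2% FBS) were exposed to compound, highest 10 μM, for 5 days at 37° C.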
(In qPCR the cycle at which signal appears reflects the starting amount.)
Regarding `CN1C(C(=O)Nc2ccc(F)c(Cl)c2)CC(c2ncc(-c3ccccc3)s2)NS1(=O)=O` (centres unmarked), the EC50 (in general, the concentration that produces a half-maximal response) was less than 1000 nM.
As for `COc1cccc(C2CC(C(=O)Nc3ccc(F)c(Cl)c3)N(C)S(=O)(=O)N2)c1` (stereo not drawn) [HBV-CSU-204, Cis-N-(3-Chloro-4-fluorophenyl)-5-(3-methoxyphenyl)-2-methyl-1,2,6-thiadiazinane-3-carboxamide 1,1-dioxide], the figure is less than 1000 nM.
The result for `O=C(Nc1ccc(F)c(Cl)c1)[C@@H]1C[C@H](c2nccs2)NS(=O)(=O)N1CCCN1CCCC1` [HBV-CSU-102-ISO-II, Cis-N-(3-Chloro-4-fluorophenyl)-2-(3-(pyrrolidin-1-yl)propyl)-5-(thiazol-2-yl)-1,2,6-thiadiazinane-3-carboxamide 1,1-dioxide] reads greater than 5000 nM; that for `[2H]C1C([2H])(c2ccc(-c3cn(C([2H])([2H])[2H])cn3)s2)NS(=O)(=O)N(C([2H])([2H])[2H])C1([2H])C(=O)Nc1ccc(F)c(Cl)c1` (stereo not drawn) [HBV-CSU-378, Cis-N-(3-chloro-4-fluorophenyl)-2-(methyl-d3)-5-(5-(1-(methyl-d3)-1H-imidazol-4-yl)thiophen-2-yl)-1,2,6-thiadiazinane-3,4,5-d3-3-carboxamide 1,1-dioxide], less than 1000 nM.
Take `CC(C)n1cc(-c2csc([C@H]3C[C@@H](C(=O)Nc4ccc(F)c(Cl)c4)N(C)S(=O)(=O)N3)c2)cn1` [HBV-CSU-295-ISO-I, Cis-N-(3-chloro-4-fluorophenyl)-5-(4-(1-isopropyl-1H-pyrazol-4-yl)thiophen-2-yl)-2-methyl-1,2,6-thiadiazinane-3-carboxamide 1,1-dioxide]: the concentration for a half-maximal effect (EC50) is less than 1000 nM.
For `[2H]C1[C@]([2H])(C(=O)Nc2ccc(F)c(Cl)c2)N(C([2H])([2H])[2H])S(=O)(=O)N[C@]1([2H])c1ncc(-c2cn(C)cn2)s1` (stereo in doubt) [HBV-CSU-340-ISO-II, Cis-N-(3-Chloro-4-fluorophenyl)-2-(methyl-d3)-5-(5-(1-methyl-1H-imidazol-4-yl)thiazol-2-yl)-1,2,6-thiadiazinane-3,4,5-d3-3-carboxamide 1,1-dioxide], the EC50 lay within 1000 to 5000 nM.
The result for `COC(C)(C)CCN1C(C(=O)Nc2ccc(F)c(Cl)c2)CC(c2nccs2)NS1(=O)=O` (racemic) [HBV-CSU-083, Cis-N-(3-Chloro-4-fluorophenyl)-2-(3-methoxy-3-methylbutyl)-5-(thiazol-2-yl)-1,2,6-thiadiazinane-3-carboxamide 1,1-dioxide] reads greater than 5000 nM; that for `CN1[C@@H](C(=O)Nc2ccc(F)c(Cl)c2)C[C@@H](c2ncc(-c3ccccn3)s2)NS1(=O)=O` [HBV-CSU-176-ISO-II, Cis-N-(3-chloro-4-fluorophenyl)-2-methyl-5-(5-(pyridin-2-yl)thiazol-2-yl)-1,2,6-thiadiazinane-3-carboxamide 1,1-dioxide], greater than 5000 nM.
Regarding `CN1C(C(=O)Nc2ccc(F)c(Cl)c2)CC(c2ccc(-c3nncn3C)s2)NS1(=O)=O` (racemic) [HBV-CSU-324, Cis-N-(3-Chloro-4-fluorophenyl)-2-methyl-5-(5-(4-methyl-4H-1,2,4-triazol-3-yl)thiophen-2-yl)-1,2,6-thiadiazinane-3-carboxamide 1,1-dioxide], the EC50 is less than 1000 nM.
Consider `CN1[C@@H](C(=O)Nc2ccc(F)c(Cl)c2)C[C@@H](c2ccc(-c3cncnc3)s2)NS1(=O)=O` [HBV-CSU-272-ISO-II, Cis-N-(3-chloro-4-fluorophenyl)-2-methyl-5-(5-(pyrimidin-5-yl)thiophen-2-yl)-1,2,6-thiadiazinane-3-carboxamide 1,1-dioxide], for which the 50% effective concentration (EC50) was greater than 5000 nM.
As for `COCCCN1[C@@H](C(=O)Nc2ccc(F)c(Cl)c2)C[C@@H](c2nccs2)NS1(=O)=O` [HBV-CSU-077-ISO-I, Cis-N-(3-Chloro-4-fluorophenyl)-2-(3-methoxypropyl)-5-(thiazol-2-yl)-1,2,6-thiadiazinane-3-carboxamide 1,1-dioxide], the figure is greater than 5000 nM; as for `O=C(Nc1ccc(F)c(Cl)c1)[C@H]1C[C@@H](c2nccs2)NS(=O)(=O)N1CCc1c[nH]nn1` [HBV-CSU-092-ISO-II, Cis-2-(2-(1H-1,2,3-Triazol-4-yl)ethyl)-N-(3-chloro-4-fluorophenyl)-5-(thiazol-2-yl)-1,2,6-thiadiazinane-3-carboxamide 1,1-dioxide], greater than 5000 nM; as for `CN1C(C(=O)Nc2ccc(F)c(Cl)c2)CC(c2cc(Cl)c(O)c(Cl)c2)NS1(=O)=O` (stereo not drawn) [HBV-CSU-260, Cis-N-(3-Chloro-4-fluorophenyl)-5-(3,5-dichloro-4-hydroxyphenyl)-2-methyl-1,2,6-thiadiazinane-3-carboxamide 1,1-dioxide], less than 1000 nM.
Take `CN1C(C(=O)Nc2ccc(F)c(Cl)c2)CC(c2ncc(-c3ccc(F)cc3)s2)NS1(=O)=O` (racemic) [HBV-CSU-248, Cis-N-(3-Chloro-4-fluorophenyl)-5-(5-(4-fluorophenyl)thiazol-2-yl)-2-methyl-1,2,6-thiadiazinane-3-carboxamide 1,1-dioxide]: the EC50 is less than 1000 nM.
Turning to `CN1C(C(=O)Nc2ccc(F)c(Cl)c2)CC(c2ncc(-c3cncn3C)s2)NS1(=O)=O` (racemic) [HBV-CSU-277, Cis-N-(3-Chloro-4-fluorophenyl)-2-methyl-5-(5-(1-methyl-1H-imidazol-5-yl)thiazol-2-yl)-1,2,6-thiadiazinane-3-carboxamide 1,1-dioxide], the EC50 is less than 1000 nM.
As for `COCCN1[C@@H](C(=O)Nc2ccc(F)c(Cl)c2)C[C@@H](c2nccs2)NS1(=O)=O` [HBV-CSU-058-ISO-I, Cis-N-(3-chloro-4-fluorophenyl)-2-(2-methoxyethyl)-5-(thiazol-2-yl)-1,2,6-thiadiazinane-3-carboxamide 1,1-dioxide], the figure is greater than 5000 nM; as for `CN1C(C(=O)Nc2ccc(F)c(Cl)c2)CC(c2ccc(O)cc2)NS1(=O)=O` (stereo not drawn) [HBV-CSU-201, Cis-N-(3-Chloro-4-fluorophenyl)-5-(4-hydroxyphenyl)-2-methyl-1,2,6-thiadiazinane-3-carboxamide 1,1-dioxide], less than 1000 nM.
For `CN1[C@H](C(=O)Nc2ccc(F)c(Cl)c2)C[C@H](c2ccc(-c3cnco3)s2)NS1(=O)=O` [HBV-CSU-269-ISO-I, Cis-N-(3-Chloro-4-fluorophenyl)-2-methyl-5-(5-(oxazol-5-yl)thiophen-2-yl)-1,2,6-thiadiazinane-3-carboxamide 1,1-dioxide], the half-maximal effective concentration (EC50) is less than 1000 nM.
As for `O=C(Nc1ccc(F)c(Cl)c1)C1CC(c2nccs2)NS(=O)(=O)N1CCO` (stereo not drawn) [HBV-CSU-097, Cis-N-(3-Chloro-4-fluorophenyl)-2-(2-hydroxyethyl)-5-(thiazol-2-yl)-1,2,6-thiadiazinane-3-carboxamide 1,1-dioxide], the figure is greater than 5000 nM; as for `CC(C)(C)OCCN1[C@H](C(=O)Nc2ccc(F)c(Cl)c2)C[C@H](c2nccs2)NS1(=O)=O` [HBV-CSU-071-ISO-I, Cis-2-(2-(tert-Butoxy)ethyl)-N-(3-chloro-4-fluorophenyl)-5-(thiazol-2-yl)-1,2,6-thiadiazinane-3-carboxamide 1,1-dioxide], less than 1000 nM; as for `COCCN1C(C(=O)Nc2ccc(F)c(Cl)c2)CC(c2nccs2)NS1(=O)=O` (racemic) [HBV-CSU-058, Cis-N-(3-chloro-4-fluorophenyl)-2-(2-methoxyethyl)-5-(thiazol-2-yl)-1,2,6-thiadiazinane-3-carboxamide 1,1-dioxide], less than 1000 nM.
Regarding `CN1[C@@H](C(=O)Nc2ccc(F)c(Cl)c2)C[C@H](c2ncc(Br)s2)NS1(=O)=O` [HBV-CSU-122-Trans-ISO-I, (3R,5R)-5-(5-bromothiazol-2-yl)-N-(3-chloro-4-fluorophenyl)-2-methyl-1,2,6-thiadiazinane-3-carboxamide 1,1-dioxide], the concentration for a half-maximal effect (EC50) is 1000 to 5000 nM.
Consider `Cc1csc([C@H]2C[C@@H](C(=O)Nc3ccc(F)c(Cl)c3)N(C)S(=O)(=O)N2)c1` [HBV-CSU-147-ISO-I, Cis-N-(3-chloro-4-fluorophenyl)-2-methyl-5-(4-methylthiophen-2-yl)-1,2,6-thiadiazinane-3-carboxamide 1,1-dioxide], for which the 50% effective concentration (EC50) is less than 1000 nM.
As for `CN1C(C(=O)Nc2ccc(F)c(Cl)c2)CC(c2ccc(-c3cncn3C)s2)NS1(=O)=O` (racemic) [HBV-CSU-267, Cis-N-(3-Chloro-4-fluorophenyl)-2-methyl-5-(5-(1-methyl-1H-imidazol-5-yl)thiophen-2-yl)-1,2,6-thiadiazinane-3-carboxamide 1,1-dioxide], the EC50 was less than 1000 nM.
Turning to `COC(C)(C)CCN1[C@@H](C(=O)Nc2ccc(F)c(Cl)c2)C[C@@H](c2nccs2)NS1(=O)=O` [HBV-CSU-083-ISO-I, Cis-N-(3-Chloro-4-fluorophenyl)-2-(3-methoxy-3-methylbutyl)-5-(thiazol-2-yl)-1,2,6-thiadiazinane-3-carboxamide 1,1-dioxide], the 50% effective concentration (EC50) was greater than 5000 nM.
As for `CCc1sc(C2CC(C(=O)Nc3ccc(F)c(Cl)c3)N(C)S(=O)(=O)N2)cc1-c1cnn(C)c1` (racemic) [HBV-CSU-305, Cis-N-(3-Chloro-4-fluorophenyl)-5-(5-ethyl-4-(1-methyl-1H-pyrazol-4-yl)thiophen-2-yl)-2-methyl-1,2,6-thiadiazinane-3-carboxamide 1,1-dioxide], the figure is less than 1000 nM; as for `CN(C)CCN1[C@@H](c2cccs2)C[C@@H](C(=O)Nc2ccc(F)c(Cl)c2)N(C)S1(=O)=O` (relative stereo) [HBV-CSU-043-ISO-I, Cis-N-(3-chloro-4-fluorophenyl)-6-(2-(dimethylamino)ethyl)-2-methyl-5-(thiophen-2-yl)-1,2,6-thiadiazinane-3-carboxamide 1,1-dioxide], greater than 5000 nM; as for `Cc1nn(C)cc1-c1ccc([C@H]2C[C@@H](C(=O)Nc3ccc(F)c(Cl)c3)N(C)S(=O)(=O)N2)s1` [HBV-CSU-313-ISO-I, Cis-N-(3-chloro-4-fluorophenyl)-5-(5-(1,3-dimethyl-1H-pyrazol-4-yl)thiophen-2-yl)-2-methyl-1,2,6-thiadiazinane-3-carboxamide 1,1-dioxide], less than 1000 nM.
Consider `Cc1cnc([C@H]2C[C@@H](C(=O)Nc3ccc(F)c(Cl)c3)N(C)S(=O)(=O)N2)s1`, for which the EC50 was less than 1000 nM.
